Reference: ChEMBL document CHEMBL1130038, “1,2-Diarylpyrroles as potent and selective inhibitors of cyclooxygenase-2” (J Med Chem, 1997)
Blank lines part the entries; values can stand above or below the compound they belong to.

How the values were obtained:
[1] = target: T1, Prostaglandin G/H synthase 1 (Homo sapiens, UniProt P23219)
Description: In vitro inhibitory activity against human prostaglandin G/H synthase 1

[2] = target: T2, Prostaglandin G/H synthase 2 (Homo sapiens, UniProt P35354)
T2 sequence (P35354 whole entry): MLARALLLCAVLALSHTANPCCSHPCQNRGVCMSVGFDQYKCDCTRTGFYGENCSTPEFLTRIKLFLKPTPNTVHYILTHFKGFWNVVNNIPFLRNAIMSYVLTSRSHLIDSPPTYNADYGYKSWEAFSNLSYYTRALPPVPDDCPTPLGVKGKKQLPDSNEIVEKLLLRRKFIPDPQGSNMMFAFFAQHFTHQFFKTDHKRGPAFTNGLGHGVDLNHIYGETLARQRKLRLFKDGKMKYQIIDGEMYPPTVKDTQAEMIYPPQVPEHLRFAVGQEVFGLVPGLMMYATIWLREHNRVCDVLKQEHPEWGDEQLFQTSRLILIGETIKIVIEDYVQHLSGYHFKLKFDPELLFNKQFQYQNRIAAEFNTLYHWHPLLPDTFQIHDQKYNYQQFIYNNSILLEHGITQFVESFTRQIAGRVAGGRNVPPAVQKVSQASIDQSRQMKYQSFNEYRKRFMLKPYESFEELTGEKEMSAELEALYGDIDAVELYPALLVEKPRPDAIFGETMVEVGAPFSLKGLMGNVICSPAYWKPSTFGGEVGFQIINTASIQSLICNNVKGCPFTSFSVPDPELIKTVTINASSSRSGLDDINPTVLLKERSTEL

[3] = target: T1, Prostaglandin G/H synthase 1; remark: listed apart in the source
[4] = species on record: Rattus norvegicus; assay: animal or person; conditions: po, read-out: Inhibition
[5] = target: T1, Prostaglandin G/H synthase 1; remark: listed apart in the source
Description: In vitro inhibitory activity against human Prostaglandin G/H synthase 1; NA indicates inactive

[6] = target: T2, Prostaglandin G/H synthase 2; remark: listed apart in the source
Description: In vitro inhibitory activity against human Prostaglandin G/H synthase 2; NA indicates inactive

[7] = species on record: Homo sapiens; assay: tissue or blood
Description: Ability to inhibit LPS-induced PGE-2 production in human whole blood

[8] = species on record: Homo sapiens; assay: tissue or blood; remark: listed apart in the source
[9] = target: T1, Prostaglandin G/H synthase 1; assay type: functional, cell-based, HL-60
Description: In vitro inhibitory activity against Prostaglandin G/H synthase 1 in retinoic acid stimulated HL-60 cells

[10] = species on record: Homo sapiens; assay: tissue or blood; remark: listed apart in the source
Description: Inhibition of TXB2 production in the human whole blood.

[11] = species on record: Homo sapiens; assay: tissue or blood; remark: listed apart in the source
Description: Inhibition of LPS-induced PGE-2 production in the human whole blood.

[12] = species on record: Rattus norvegicus; assay: animal or person; conditions: po, read-out: Inhibition; remark: listed apart in the source

T1 sequence (P23219 whole entry): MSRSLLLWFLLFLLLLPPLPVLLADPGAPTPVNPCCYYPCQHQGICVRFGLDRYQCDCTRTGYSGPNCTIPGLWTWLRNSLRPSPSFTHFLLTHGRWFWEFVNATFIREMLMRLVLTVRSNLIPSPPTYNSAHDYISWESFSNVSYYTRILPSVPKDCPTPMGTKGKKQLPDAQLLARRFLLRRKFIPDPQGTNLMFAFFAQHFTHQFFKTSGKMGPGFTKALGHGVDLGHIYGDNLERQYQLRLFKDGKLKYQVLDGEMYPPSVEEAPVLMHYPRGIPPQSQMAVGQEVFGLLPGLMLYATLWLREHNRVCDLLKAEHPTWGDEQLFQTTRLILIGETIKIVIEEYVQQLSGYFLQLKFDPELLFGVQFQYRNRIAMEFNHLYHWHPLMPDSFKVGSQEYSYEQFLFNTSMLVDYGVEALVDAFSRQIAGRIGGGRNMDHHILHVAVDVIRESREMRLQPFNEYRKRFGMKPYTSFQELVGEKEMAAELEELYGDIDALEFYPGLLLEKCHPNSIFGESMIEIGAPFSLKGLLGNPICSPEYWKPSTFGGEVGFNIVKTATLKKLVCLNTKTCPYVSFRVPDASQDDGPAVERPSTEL

SMILES: Cc1ccc(-c2ccc(S(C)(=O)=O)cc2)n1Cc1ccc(F)cc1
- IC50 [1]: > 100 µM

SMILES: Cc1ccc(-c2ccc(S(C)(=O)=O)cc2)n1-c1ccccc1
- inhibition in vivo at 10 mg/kg [4]: 21%

SMILES: CCCCn1c(C)ccc1-c1ccc(S(C)(=O)=O)cc1
- inhibition in vivo at 10 mg/kg [4]: 1%
- IC50 [1]: > 100 µM

SMILES: Cc1ccc(-c2ccc(S(C)(=O)=O)cc2)n1-c1ccc(F)c(F)c1
- inhibition in vivo at 10 mg/kg [4]: 17%

SMILES: Cc1c(Br)cc(-c2ccc(S(C)(=O)=O)cc2)n1-c1ccc(F)cc1
- inhibition in vivo at 10 mg/kg [4]: 34%

SMILES: Cc1ccc(-c2ccc(F)cc2)n1-c1ccc([S+](C)[O-])cc1 (stereo not given)
- IC50 [5]: Not Active
- IC50 [6]: Not Active

SMILES: Cc1ccc(-c2ccc(S(C)(=O)=O)cc2)n1-c1ccc(C(F)(F)F)cc1
- inhibition in vivo at 10 mg/kg [4]: 31%

SMILES: CS(=O)(=O)c1ccc(-c2cccn2-c2ccc(F)cc2)cc1
- IC50 [1]: > 100 µM

SMILES: NS(=O)(=O)c1ccc(-n2cccc2-c2ccc(F)cc2)cc1
- inhibition in vivo at 10 mg/kg [4]: 30%

SMILES: COc1ccc(-c2ccc(CCC(=O)O)n2-c2ccc(C(C)=O)cc2)cc1
- IC50 [7]: 1.5 µM
- IC50 [8]: 0.3 µM
- IC50 [1]: 25 µM
- IC50 [9]: 1 µM

SMILES: Cc1ccc(-n2c(C)ccc2-c2ccc(S(C)(=O)=O)cc2)cc1
- inhibition in vivo at 10 mg/kg [4]: 25%

SMILES: CS(=O)(=O)c1ccc(-n2cccc2-c2ccc(F)cc2)cc1
- inhibition in vivo at 10 mg/kg [4]: 42%

SMILES: Cc1ccc(-c2ccc(S(C)(=O)=O)cc2)[nH]1
- IC50 [1]: > 100 µM

SMILES: Cc1c(COc2ccc(Cl)cc2)cc(-c2ccc(S(C)(=O)=O)cc2)n1-c1ccc(F)cc1
- IC50 [1]: > 100 µM

SMILES: CCc1ccc(-c2ccc(S(C)(=O)=O)cc2)n1-c1ccc(F)cc1
- IC50 [1]: > 100 µM

SMILES: CC(=O)c1cc(-c2ccc(S(C)(=O)=O)cc2)n(-c2ccc(F)cc2)c1C
- inhibition in vivo at 10 mg/kg [4]: 13%

SMILES: Cc1c(C(O)C(F)(F)F)cc(-c2ccc(S(C)(=O)=O)cc2)n1-c1ccc(F)cc1 (stereo not given)
- inhibition in vivo at 20 mg/kg [12]: 15%

SMILES: CS(=O)(=O)c1ccc(-c2ccc(C(F)(F)F)n2-c2ccc(F)cc2)cc1
- IC50 [1]: > 100 µM

SMILES: COC(=O)c1ccc(-n2c(C)ccc2-c2ccc(F)cc2)cc1
- IC50 [5]: Not Active
- IC50 [6]: Not Active

Continued, in another order:

- IC50 [1]: > 100 µM
SMILES: CS(=O)(=O)c1cccc(-n2cccc2-c2ccc(F)cc2)c1

- IC50 [2]: Active
- IC50 [3]: Active
SMILES: CCN(CC)OC(=O)c1ccc(-n2c(C)ccc2-c2ccc(F)cc2)cc1

- IC50 [1]: > 100 µM
SMILES: Cc1ccc(-c2ccc(F)cc2)n1-c1ccc(S(C)(=O)=O)cc1

- IC50 [5]: Not Active
- IC50 [6]: Not Active
SMILES: COc1ccc(-c2ccc(C)n2-c2ccc(C(C)=O)cc2)cc1

- IC50 [1]: > 100 µM
SMILES: CS(=O)(=O)c1ccc(-c2ccc(CCC(=O)O)n2-c2ccc(F)cc2)cc1

- IC50 [1]: > 100 µM
SMILES: CNS(=O)(=O)c1ccc(-n2cccc2-c2ccc(F)cc2)cc1

- IC50 [1]: > 100 µM
SMILES: O=S(=O)(c1ccccc1)c1ccc(-n2cccc2-c2ccc(F)cc2)cc1

- IC50 [1]: > 100 µM
SMILES: CCS(=O)(=O)c1ccc(-n2cccc2-c2ccc(F)cc2)cc1

- IC50 [1]: > 100 µM
SMILES: Cc1c(CN(C)C)cc(-c2ccc(S(C)(=O)=O)cc2)n1-c1ccc(F)cc1

- IC50 [1]: > 100 µM
SMILES: Cc1ccc(-c2ccc(S(C)(=O)=O)cc2)n1-c1ccc(F)cc1
- inhibition in vivo at 10 mg/kg [4]: 25%

- IC50 [1]: > 100 µM
SMILES: Cc1c(C(Oc2cccc(Cl)c2)C(F)(F)F)cc(-c2ccc(S(C)(=O)=O)cc2)n1-c1ccc(F)cc1 (stereo not given)

- IC50 [1]: > 100 µM
SMILES: Cc1c(COc2cccc(Cl)c2)cc(-c2ccc(S(C)(=O)=O)cc2)n1-c1ccc(F)cc1

- IC50 [10]: > 50 µM
- IC50 [11]: 4.4 µM
SMILES: CN(C)S(=O)(=O)c1ccc(-n2c(CCC(=O)O)ccc2-c2ccc(F)cc2)cc1

- IC50 [1]: > 100 µM
SMILES: Cc1ccc(-c2ccc(S(C)(=O)=O)cc2)n1C(C)C

- IC50 [1]: > 100 µM
SMILES: Cc1ccc(-c2ccc(S(C)(=O)=O)cc2)n1C1CCCCC1

- IC50 [5]: Not Active
- IC50 [6]: Not Active
SMILES: CC(=O)c1ccc(-n2c(C)ccc2-c2ccc(F)cc2)cc1

- IC50 [1]: > 100 µM
SMILES: Cc1c(S(=O)(=O)C(F)(F)F)cc(-c2ccc(S(C)(=O)=O)cc2)n1-c1ccc(F)cc1
- inhibition in vivo at 20 mg/kg [12]: 30%

- IC50 [1]: > 100 µM
SMILES: CS(=O)(=O)c1ccc(-n2cccc2-c2ccc(F)cc2)cc1Cl

- IC50 [1]: > 100 µM
SMILES: CN(C)S(=O)(=O)c1ccc(-n2cccc2-c2ccc(F)cc2)cc1
